US20170190671A1, “BIS(ARYL)CATECHOL DERIVATIVES AS HERBICIDES” (E I DU PONT DE NEMOURS AND COMPANY, priority 2014, published 2017)

Tests used:
Settings in all cases: scale 0 to 100
wild oat (Avenafatua) = assay: Test D postemergence; type: in vivo, Avena fatua
Excerpt: Seeds of plant species selected from bluegrass (annual bluegrass, Poa annua), blackgrass (Alopecurus myosuroides), canarygrass (Phalaris minor), chickweed (common chickweed, Stellaria media), cutleaf geranium (Geranium dissectum), galium (catchweed bedstraw, Galium aparine), downy bromegrass (Bromus tectorum), field poppy (Papaver rhoeas), field violet (Viola arvensis), green foxtail (Setaria viridis), deadnettle (henbit deadnettle, Lamium amplexicaule), Italian ryegrass (Lolium multiflorum), kochia (Kochia scoparia), lambsquarters (Chenopodium album), oilseed rape (Brassica napus), pigweed (Amaranthus retroflexus), chamomile (scentless chamomile, Matricaria inodora), Russian thistle (Salsola kali), speedwell (bird's-eye speedwell, Veronica persica), spring barley (Hordeum vulgare), spring wheat (Triticum aestivum), wild buckwheat (Polygonum convolvulus), wild mustard (Sinapis arvensis), wild oat (Avenafatua), wild radish (Raphanus raphanistrum), windgrass (Apera spica-venti), winter barley (Hordeum vulgare), and winter wheat (Triticum aestivum) were planted into a silt loam soil and treated preemergence with test chemicals formulated in a non-phytotoxic solvent mixture which included a surfactant.
At the same time, these species were planted in pots containing Redi-Earth® planting medium (Scotts Company, 14111 Scottslawn Road, Marysville, Ohio 43041) comprising spaghnum peat moss, vermiculite, wetting agent and starter nutrients and treated with postemergence applications of the test chemicals formulated in the same manner. Plants ranged in height from 2 to 18 cm (1- to 4-leaf stage). Treated plants and controls were maintained in a controlled growth environment for 14 to 21 days after which time all species were compared to controls and visually evaluated. Plant response ratings, summarized in Table D, are based on a scale of 0 to 100 where 0 is no effect and 100 is complete control. A dash (-) response means no test result.

[1] = test system: lambsquarters (Chenopodium album); assay: Test E preemergence; type: in vivo
How it was run: (§1)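 Test chemicals, formulated in a non-phytotoxic solvent with surfactant, are applied to silt loam soil after sowing or sprayed over young plants (1–4 leaves) in potting medium. Plants are then kept in a greenhouse for 14 to 21 days and scored 0–100 for control.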

[2] = test system: fall panicum (Panicum dichotomiflorum); assay: Test E preemergence; type: in vivo
How it was run: as §1

[3] = test system: yellow nutsedge (Cyperus esculentus); assay: Test E preemergence; type: in vivo
How it was run: as §1

kochia (Kochia scoparia) = assay: Test E postemergence; type: in vivo
Excerpt: (§2) Seeds of plant species selected from corn (Zea mays), soybean (Glycine max), velvetleaf (Abutilon theophrasti), cocklebur (common cocklebur, Xanthium strumarium), lambsquarters (Chenopodium album), wild poinsettia (Euphorbia heterophylla), palmer pigweed (Amaranthus palmeri), waterhemp (common waterhemp, Amaranthus rudis), surinam grass (Brachiaria decumbens), large (Lg) crabgrass (Digitaria sanguinalis), Brazilian crabgrass (Digitaria horizontalis), fall panicum (Panicum dichotomiflorum), giant foxtail (Setaria faberii), green foxtail (Setaria viridis), goosegrass (Eleusine indica), johnsongrass (Sorghum halepense), ragweed (common ragweed, Ambrosia elatior), barnyardgrass (Echinochloa crus-galli), sandbur (southern sandbur, Cenchrus echinatus), arrowleaf sida (Sida rhombifolia), Italian ryegrass (Lolium multiflorum), dayflower (Virginia (VA) dayflower, Commelina virginica), field bindweed (Convolvulus arvensis), morningglory (Ipomoea coccinea), nightshade (eastern black nightshade, Solanum ptycanthum), kochia (Kochia scoparia), yellow nutsedge (Cyperus esculentus), horseweed (Conyza canadensis), and hairy beggarticks (Bidens pilosa), were planted into a silt loam soil and treated preemergence with test chemicals formulated in a non-phytotoxic solvent mixture which included a surfactant.
(§3) At the same time, plants from these crop and weed species and also waterhemp_RES1, (ALS & Triazine resistant common waterhemp, Amaranthus rudis), and waterhemp_RES2, (ALS & HPPD resistant common waterhemp, Amaranthus rudis) were planted in pots containing Redi-Earth® planting medium (Scotts Company, 14111 Scottslawn Road, Marysville, Ohio 43041) comprising spaghnum peat moss, vermiculite, wetting agent and starter nutrients were treated with postemergence applications of test chemicals formulated in the same manner. Plants ranged in height from 2 to 18 cm for postemergence treatments (1- to 4-leaf stage). Treated plants and controls were maintained in a greenhouse for 14 to 21 days, after which time all species were compared to controls and visually evaluated. Plant response ratings, summarized in Table E, are based on a scale of 0 to 100 where 0 is no effect and 100 is complete control. A dash (-) response means no test result.

[4] = test system: barnyardgrass (Echinochloa crus-galli); assay: Test E postemergence; type: in vivo
Excerpt: as §2, §3

[5] = test system: dayflower (Virginia (VA) dayflower, Commelina virginica); assay: Test E postemergence; type: in vivo
Excerpt: as §2, §3

soybean (Glycine max) = assay: Test E postemergence; type: in vivo
Excerpt: as §2, §3

[6] = test system: waterhemp (common waterhemp, Amaranthus rudis); assay: Test E postemergence; type: in vivo
Excerpt: as §2, §3

[7] = test system: Brazilian crabgrass (Digitaria horizontalis); assay: Test E postemergence; type: in vivo
Excerpt: as §2, §3

[8] = test system: sandbur (southern sandbur, Cenchrus echinatus); assay: Test E postemergence; type: in vivo
Excerpt: as §2, §3

[9] = test system: arrowleaf sida (Sida rhombifolia); assay: Test E postemergence; type: in vivo
Excerpt: as §2, §3

[10] = test system: waterhemp_RES2 (ALS & HPPD resistant common waterhemp, Amaranthus rudis); assay: Test E postemergence; type: in vivo
Excerpt: as §2, §3

[11] = test system: horseweed (Conyza canadensis); assay: Test E postemergence; type: in vivo
Excerpt: as §2, §3

N#Cc1cccc(Oc2ncc(Cl)cn2)c1Oc1ncc(Cl)cn1 [Compound 3, 2,3-bis[(5-chloro-2-pyrimidinyl)oxy]benzonitrile]
Plant response rating, Oat, Wild (wild oat (Avenafatua); 16 g ai/ha): 15
Plant response rating, Oat, Wild (wild oat (Avenafatua); 31 g ai/ha): 15
Plant response rating, Oat, Wild (wild oat (Avenafatua); 62 g ai/ha): 15
Plant response rating, Oat, Wild (wild oat (Avenafatua); 125 g ai/ha): 20

Clc1cnc(Oc2cccc(Br)c2Oc2ncc(Cl)cn2)nc1 [Compound 19, 2,2′-[[3-bromo-1,2-phenylene]bis(oxy)]bis[5-chloropyrimidine]]
Plant response rating, Lambsquarters ([1]; 16 g ai/ha): 60
Plant response rating, Lambsquarters ([1]; 31 g ai/ha): 100
Plant response rating, Lambsquarters ([1]; 62 g ai/ha): 100
Plant response rating, Lambsquarters ([1]; 125 g ai/ha): 100
Plant response rating, Panicum, Fall ([2]; 16 g ai/ha): 100
Plant response rating, Panicum, Fall ([2]; 31 g ai/ha): 85
Plant response rating, Panicum, Fall ([2]; 62 g ai/ha): 98
Plant response rating, Panicum, Fall ([2]; 125 g ai/ha): 100
Plant response rating, Nutsedge, Yellow ([3]; 16 g ai/ha): 0
Plant response rating, Nutsedge, Yellow ([3]; 31 g ai/ha): 0
Plant response rating, Nutsedge, Yellow ([3]; 62 g ai/ha): 0
Plant response rating, Nutsedge, Yellow ([3]; 125 g ai/ha): 20

Fc1cccc(Oc2ncc(Cl)cn2)c1Oc1ncc(Cl)cn1 [Compound 21, 2,2′-[[3-fluoro-1,2-phenylene]bis(oxy)]bis[5-chloropyrimidine]]
Plant response rating, Lambsquarters ([1]; 16 g ai/ha): 0
Plant response rating, Lambsquarters ([1]; 31 g ai/ha): 40
Plant response rating, Lambsquarters ([1]; 62 g ai/ha): 100
Plant response rating, Lambsquarters ([1]; 125 g ai/ha): 100
Plant response rating, Panicum, Fall ([2]; 16 g ai/ha): 35
Plant response rating, Panicum, Fall ([2]; 31 g ai/ha): 75
Plant response rating, Panicum, Fall ([2]; 62 g ai/ha): 100
Plant response rating, Panicum, Fall ([2]; 125 g ai/ha): 100
Plant response rating, Nutsedge, Yellow ([3]; 16 g ai/ha): 0
Plant response rating, Nutsedge, Yellow ([3]; 31 g ai/ha): 0
Plant response rating, Nutsedge, Yellow ([3]; 62 g ai/ha): 0
Plant response rating, Nutsedge, Yellow ([3]; 125 g ai/ha): 15

Fc1cnc(Oc2c(Br)cccc2Oc2ncc(Cl)cn2)nc1 [Compound 22]
Plant response rating, Oat, Wild (wild oat (Avenafatua); 16 g ai/ha): 10
Plant response rating, Oat, Wild (wild oat (Avenafatua); 31 g ai/ha): 25
Plant response rating, Oat, Wild (wild oat (Avenafatua); 62 g ai/ha): 35
Plant response rating, Oat, Wild (wild oat (Avenafatua); 125 g ai/ha): 45

Fc1cnc(Oc2c(F)cccc2Oc2ncc(Cl)cn2)nc1 [Compound 23]
Plant response rating, Oat, Wild (wild oat (Avenafatua); 16 g ai/ha): 15
Plant response rating, Oat, Wild (wild oat (Avenafatua); 31 g ai/ha): 15
Plant response rating, Oat, Wild (wild oat (Avenafatua); 62 g ai/ha): 20
Plant response rating, Oat, Wild (wild oat (Avenafatua); 125 g ai/ha): 35

FC(F)(F)c1cnc(Oc2c(Br)cccc2Oc2ncc(Cl)cn2)nc1 [Compound 24]
Plant response rating, Oat, Wild (wild oat (Avenafatua); 16 g ai/ha): 15
Plant response rating, Oat, Wild (wild oat (Avenafatua); 31 g ai/ha): 20
Plant response rating, Oat, Wild (wild oat (Avenafatua); 62 g ai/ha): 25
Plant response rating, Oat, Wild (wild oat (Avenafatua); 125 g ai/ha): 35

Fc1ccc(F)c(Oc2ncc(Cl)cn2)c1Oc1ncc(Cl)cn1 [Compound 34, 2,2′-[(3,6-difluoro-1,2-phenylene)bis(oxy)]bis[5-chloropyrimidine]]
Plant response rating, Lambsquarters ([1]; 16 g ai/ha): 0
Plant response rating, Lambsquarters ([1]; 31 g ai/ha): 70
Plant response rating, Lambsquarters ([1]; 62 g ai/ha): 90
Plant response rating, Lambsquarters ([1]; 125 g ai/ha): 100
Plant response rating, Panicum, Fall ([2]; 16 g ai/ha): 50
Plant response rating, Panicum, Fall ([2]; 31 g ai/ha): 80
Plant response rating, Panicum, Fall ([2]; 62 g ai/ha): 98
Plant response rating, Panicum, Fall ([2]; 125 g ai/ha): 100
Plant response rating, Nutsedge, Yellow ([3]; 16 g ai/ha): 0
Plant response rating, Nutsedge, Yellow ([3]; 31 g ai/ha): 0
Plant response rating, Nutsedge, Yellow ([3]; 62 g ai/ha): 0
Plant response rating, Nutsedge, Yellow ([3]; 125 g ai/ha): 0

N#Cc1cccc(Oc2ncc(Cl)cn2)c1Oc1ncc(C(F)(F)F)cn1 [Compound 38, 3-[(5-chloro-2-pyrimidinyl)oxy]-2-[[5-(trifluoromethyl)-2-pyrimidinyl]oxy]-benzonitrile]
Plant response rating, Lambsquarters ([1]; 16 g ai/ha): 98
Plant response rating, Lambsquarters ([1]; 31 g ai/ha): 100
Plant response rating, Lambsquarters ([1]; 62 g ai/ha): 100
Plant response rating, Lambsquarters ([1]; 125 g ai/ha): 100
Plant response rating, Panicum, Fall ([2]; 16 g ai/ha): 0
Plant response rating, Panicum, Fall ([2]; 31 g ai/ha): 98
Plant response rating, Panicum, Fall ([2]; 62 g ai/ha): 100
Plant response rating, Panicum, Fall ([2]; 125 g ai/ha): 100
Plant response rating, Nutsedge, Yellow ([3]; 16 g ai/ha): 0
Plant response rating, Nutsedge, Yellow ([3]; 31 g ai/ha): 0
Plant response rating, Nutsedge, Yellow ([3]; 62 g ai/ha): 20
Plant response rating, Nutsedge, Yellow ([3]; 125 g ai/ha): 65
Plant response rating, Kochia (kochia (Kochia scoparia); 16 g ai/ha): 80
Plant response rating, Kochia (kochia (Kochia scoparia); 31 g ai/ha): 80
Plant response rating, Kochia (kochia (Kochia scoparia); 62 g ai/ha): 100
Plant response rating, Kochia (kochia (Kochia scoparia); 125 g ai/ha): 98
Plant response rating, Barnyardgrass ([4]; 16 g ai/ha): 0
Plant response rating, Barnyardgrass ([4]; 31 g ai/ha): 10
Plant response rating, Barnyardgrass ([4]; 62 g ai/ha): 10
Plant response rating, Barnyardgrass ([4]; 125 g ai/ha): 20
Plant response rating, Dayflower, VA ([5]; 16 g ai/ha): 40
Plant response rating, Dayflower, VA ([5]; 31 g ai/ha): 50
Plant response rating, Dayflower, VA ([5]; 62 g ai/ha): 60
Plant response rating, Dayflower, VA ([5]; 125 g ai/ha): 60
Plant response rating, Soybean (soybean (Glycine max); 16 g ai/ha): 70
Plant response rating, Soybean (soybean (Glycine max); 31 g ai/ha): 80
Plant response rating, Soybean (soybean (Glycine max); 62 g ai/ha): 95
Plant response rating, Soybean (soybean (Glycine max); 125 g ai/ha): 98
Plant response rating, Waterhemp ([6]; 16 g ai/ha): 85
Plant response rating, Waterhemp ([6]; 31 g ai/ha): 90
Plant response rating, Waterhemp ([6]; 62 g ai/ha): 95
Plant response rating, Waterhemp ([6]; 125 g ai/ha): 95
Plant response rating, Crabgrass, Brazil ([7]; 16 g ai/ha): 10
Plant response rating, Crabgrass, Brazil ([7]; 31 g ai/ha): 15
Plant response rating, Crabgrass, Brazil ([7]; 62 g ai/ha): 20
Plant response rating, Crabgrass, Brazil ([7]; 125 g ai/ha): 20
Plant response rating, Sandbur ([8]; 16 g ai/ha): 0
Plant response rating, Sandbur ([8]; 31 g ai/ha): 0
Plant response rating, Sandbur ([8]; 62 g ai/ha): 10
Plant response rating, Sandbur ([8]; 125 g ai/ha): 20
Plant response rating, Arrowleaf Sida ([9]; 16 g ai/ha): 60
Plant response rating, Arrowleaf Sida ([9]; 31 g ai/ha): 80
Plant response rating, Arrowleaf Sida ([9]; 62 g ai/ha): 90
Plant response rating, Arrowleaf Sida ([9]; 125 g ai/ha): 90
Plant response rating, Waterhemp_RES2 ([10]; 16 g ai/ha): 75
Plant response rating, Waterhemp_RES2 ([10]; 31 g ai/ha): 85
Plant response rating, Waterhemp_RES2 ([10]; 62 g ai/ha): 90
Plant response rating, Waterhemp_RES2 ([10]; 125 g ai/ha): 95
Plant response rating, Horseweed ([11]; 16 g ai/ha): 5
Plant response rating, Horseweed ([11]; 31 g ai/ha): 10
Plant response rating, Horseweed ([11]; 62 g ai/ha): 20
Plant response rating, Horseweed ([11]; 125 g ai/ha): 40
